How the values were obtained:
rats [1] = assay: General toxicology studies in rats; assay type: in vivo, rat
rats [2] = assay: Combined male and female rat fertility study; assay type: in vivo; conditions: oral
Excerpt: In a combined male and female rat fertility study, belumosudil-treated male animals were mated with untreated females, or untreated males were mated with belumosudil-treated females.

CYP3A4 = CYP3A4 (Homo sapiens, UniProt P08684); assay: In vitro metabolism by CYP3A4; assay type: in vitro ADME
CYP3A4, sequence (P08684 whole entry): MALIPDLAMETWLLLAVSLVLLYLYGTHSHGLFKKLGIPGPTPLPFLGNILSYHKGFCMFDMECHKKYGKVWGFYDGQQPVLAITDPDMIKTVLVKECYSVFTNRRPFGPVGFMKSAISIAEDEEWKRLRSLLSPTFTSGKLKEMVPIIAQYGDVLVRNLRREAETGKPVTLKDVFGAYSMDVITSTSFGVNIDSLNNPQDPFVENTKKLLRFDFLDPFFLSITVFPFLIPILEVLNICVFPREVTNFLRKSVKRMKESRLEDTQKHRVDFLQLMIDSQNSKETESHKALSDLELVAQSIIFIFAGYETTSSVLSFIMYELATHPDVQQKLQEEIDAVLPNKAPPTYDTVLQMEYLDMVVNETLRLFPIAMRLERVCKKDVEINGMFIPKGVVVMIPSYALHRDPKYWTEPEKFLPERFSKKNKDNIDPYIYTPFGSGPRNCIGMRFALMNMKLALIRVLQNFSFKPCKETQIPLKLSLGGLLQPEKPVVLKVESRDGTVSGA

## CC(C)NC(=O)COc1cccc(-c2nc(Nc3ccc4[nH]ncc4c3)c3ccccc3n2)c1 [belumosudil, 2-{3-[4-(1H-indazol-5-ylamino)-2-quinazolinyl]phenoxy}-N-(propan-2-yl) acetamide]
Rats [1]
  dose with decreased follicular development in ovaries: 275 mg/kg/day
Rats [2]
  dose with adverse fertility findings (pre- or post-implantation loss, fewer viable embryos, abnormal sperm, testes/epididymis changes, reduced fertility): 275 mg/kg/day
CYP3A4
  metabolism by CYP3A4: primarily metabolized
